Residue numbers refer to the chain shown, from its start. “Also recorded” adds a separate entry of the source. Where a SMILES comes first, the peptide text is derived from it. The star is where a group is joined. Palmitoyl = CCCCCCCCCCCCCCCC(=O)*
Assays:
cholecystokinin B (CCKB) = molecular target: T1, cholecystokinin B (CCKB) (Homo sapiens, UniProt P32239); experiment: InsP formation in COS7 cells expressing CCKB; type: cell-based; settings: relative to 300 nM CCK-8
T1 construct: expressed in transfected cells; host or cells: COS7, transient
T1 sequence (P32239 1-447): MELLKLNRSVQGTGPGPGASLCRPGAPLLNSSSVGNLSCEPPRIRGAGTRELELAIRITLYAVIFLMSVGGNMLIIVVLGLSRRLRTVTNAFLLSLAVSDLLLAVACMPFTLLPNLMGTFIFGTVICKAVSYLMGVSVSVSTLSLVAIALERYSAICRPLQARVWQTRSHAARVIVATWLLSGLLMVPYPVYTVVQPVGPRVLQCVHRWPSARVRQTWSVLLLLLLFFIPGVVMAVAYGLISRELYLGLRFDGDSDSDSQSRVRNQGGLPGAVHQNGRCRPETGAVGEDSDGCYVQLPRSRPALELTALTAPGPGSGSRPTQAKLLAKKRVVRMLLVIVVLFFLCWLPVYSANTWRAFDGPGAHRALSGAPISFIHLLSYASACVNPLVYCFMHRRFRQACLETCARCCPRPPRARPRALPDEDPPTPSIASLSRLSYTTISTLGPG

S309P PAR1 = molecular target: T2, S309P PAR1 (Homo sapiens, UniProt P25116, S309P); experiment: InsP formation in COS7 cells expressing S309P PAR1 mutant; type: cell-based; settings: relative to wild type PAR1
T2 construct: expressed in transfected cells; host or cells: COS7, transient
T2 sequence (P25116 22-425 S309P): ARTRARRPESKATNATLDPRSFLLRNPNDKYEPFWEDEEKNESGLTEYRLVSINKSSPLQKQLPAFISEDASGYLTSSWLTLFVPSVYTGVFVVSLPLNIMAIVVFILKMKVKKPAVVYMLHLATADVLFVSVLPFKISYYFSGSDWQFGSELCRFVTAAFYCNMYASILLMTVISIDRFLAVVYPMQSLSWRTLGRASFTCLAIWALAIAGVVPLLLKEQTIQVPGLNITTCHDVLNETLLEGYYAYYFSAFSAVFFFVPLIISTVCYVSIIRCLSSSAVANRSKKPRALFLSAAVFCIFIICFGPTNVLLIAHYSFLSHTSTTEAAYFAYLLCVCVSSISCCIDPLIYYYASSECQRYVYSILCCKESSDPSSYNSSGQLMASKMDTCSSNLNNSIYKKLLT

delta377 PAR1 = experiment: InsP formation in COS7 cells expressing delta377 (C-tail deleted) PAR1 mutant; type: cell-based, human; settings: relative to wild type PAR1
delta377 PAR1, sequence (P25116 42-376 limits assumed): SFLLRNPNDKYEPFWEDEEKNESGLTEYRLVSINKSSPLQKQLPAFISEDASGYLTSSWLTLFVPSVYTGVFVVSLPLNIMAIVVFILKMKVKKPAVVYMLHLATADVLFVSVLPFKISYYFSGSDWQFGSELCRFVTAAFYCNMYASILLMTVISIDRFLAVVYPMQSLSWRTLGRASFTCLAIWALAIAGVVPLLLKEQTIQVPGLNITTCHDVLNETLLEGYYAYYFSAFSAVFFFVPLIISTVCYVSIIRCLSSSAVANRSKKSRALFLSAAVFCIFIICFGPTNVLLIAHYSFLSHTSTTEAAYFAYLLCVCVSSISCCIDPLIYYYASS

[1] = molecular target: T3, somatostatin receptor (SSTR2) (Rattus norvegicus, UniProt P30680); experiment: InsP formation in COS7 cells expressing SSTR2; type: cell-based; settings: relative to full response to 1 μM AGCKNFFWKTFTSC
T3 construct: expressed in transfected cells; host or cells: COS7, transient
T3 sequence (P30680 whole entry): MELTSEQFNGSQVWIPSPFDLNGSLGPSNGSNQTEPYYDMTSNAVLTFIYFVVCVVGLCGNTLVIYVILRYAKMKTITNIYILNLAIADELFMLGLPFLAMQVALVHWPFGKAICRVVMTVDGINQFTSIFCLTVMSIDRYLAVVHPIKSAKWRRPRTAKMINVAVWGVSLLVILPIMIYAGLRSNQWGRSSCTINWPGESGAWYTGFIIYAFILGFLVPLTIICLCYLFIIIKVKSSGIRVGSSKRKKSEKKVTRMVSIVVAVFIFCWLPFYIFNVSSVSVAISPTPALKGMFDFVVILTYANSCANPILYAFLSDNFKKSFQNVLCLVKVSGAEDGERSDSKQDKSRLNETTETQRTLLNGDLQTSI

PAR4 [2] = molecular target: T4, PAR4 (Homo sapiens, UniProt Q96RI0); experiment: Inhibition of AYPGKF-induced human platelet aggregation; type: cell-based
T4 sequence (Q96RI0 18-385): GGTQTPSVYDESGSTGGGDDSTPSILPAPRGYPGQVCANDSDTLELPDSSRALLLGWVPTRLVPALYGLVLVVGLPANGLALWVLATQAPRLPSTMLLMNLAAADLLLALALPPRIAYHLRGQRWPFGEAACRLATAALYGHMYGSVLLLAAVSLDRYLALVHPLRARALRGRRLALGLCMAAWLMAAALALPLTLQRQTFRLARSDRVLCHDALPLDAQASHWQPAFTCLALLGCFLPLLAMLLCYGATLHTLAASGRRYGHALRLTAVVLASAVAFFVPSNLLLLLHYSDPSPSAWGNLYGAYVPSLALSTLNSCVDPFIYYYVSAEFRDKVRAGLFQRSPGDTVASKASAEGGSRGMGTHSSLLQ

PAR1 = molecular target: T5, PAR1 (Homo sapiens, UniProt P25116); experiment: Inhibition of PAR1-dependent platelet Ca2+ signal; type: cell-based; settings: for inhibition of PAR1-dependent Ca2+ response: SFLLRN (or thrombin) after peptide pre-treatment
T5 construct: expressed in transfected cells
T5 sequence (P25116 22-425): T2 sequence (P25116 22-425 S309P) with P288S
Method: (§1) Platelet Ca2+ measurements were performed as in Example 1.
(§2) The integrated Ca^2+ response for the individual treatments are relative to the full Ca^2+ responses for each agonist (100%) recorded in the absence of P4pal-10 (top trace).

PAR4 [3] = molecular target: T4, PAR4; experiment: Inhibition of PAR4-dependent platelet Ca2+ signal (AYPGKF); type: cell-based
Method: as §1, §2

platelets = experiment: Platelet intracellular Ca2+, agonist activity of peptides
[4] = tested on: thrombin receptors on human platelets; experiment: Inhibition of thrombin-induced human platelet aggregation; settings: 3 nM thrombin; LBS1-PE at 25 micromolar
[5] = 5 μM pepducin, SFLLRN followed by AYPGKF
[6] = 1.2-5 μM pepducin, AYPGKF first, then SFLLRN

With `CCCCCCCCCCCCCCCC(=O)N[C@@H](CO)C(=O)NCC(=O)N[C@@H](CO)C(=O)N[C@@H](CCCNC(=N)N)C(=O)N1CCC[C@H]1C(=O)N[C@H](C(=O)N[C@@H](CCC(N)=O)C(=O)N[C@@H](C)C(=O)N[C@@H](CCCCN)C(=O)N[C@@H](CC(C)C)C(=O)N[C@@H](CC(C)C)C(=O)N[C@@H](C)C(=O)N[C@@H](CCCCN)C(=O)N[C@@H](CCCCN)C(=O)N[C@@H](CCCNC(=N)N)C(=O)N[C@H](C(=O)N[C@H](C(=O)N[C@@H](Cc1ccccc1)C(N)=O)C(C)C)C(C)C)[C@@H](C)O` [Bpal-18F] (Palmitoyl-SGSRPTQAKLLAKKRVVF-NH2) the “Agonist Efficacy” value (cholecystokinin B (CCKB)) was 13 ± 2%.
With SFLLRN the “loss of efficacy on S309P mutant” value (S309P PAR1) was 3.3 fold, the “loss of potency on S309P mutant” value (S309P PAR1) was 28 fold and the “shift of potency on delta377 mutant” value (delta377 PAR1) was roughly 30 fold.
For `CCCCCCCCCCCCCCCC(=O)N[C@@H](CCCCN)C(=O)N[C@H](C(=O)N[C@@H](CCCNC(=N)N)C(=O)N[C@@H](CO)C(=O)N[C@@H](CO)C(=O)NCC(=O)N[C@H](C(=O)N[C@@H](CCCNC(=N)N)C(=O)N[C@H](C(=O)NCC(=O)N[C@@H](CO)C(=O)N[C@@H](CO)C(=O)N[C@@H](CCCCN)C(=O)N[C@@H](CCCNC(=N)N)C(=O)N[C@@H](CCCCN)C(=O)N[C@@H](CCCCN)C(=O)N[C@@H](CO)C(=O)N[C@@H](CCC(=O)O)C(=O)N[C@@H](CCCCN)C(=O)N[C@@H](CCCCN)C(=O)N[C@H](C(=O)N[C@H](C(=O)N[C@@H](Cc1ccccc1)C(N)=O)[C@@H](C)O)C(C)C)C(C)C)[C@@H](C)CC)C(C)C` [Pepducin S2pal-23F] (Palmitoyl-KVRSSGIRVGSSKRKKSEKKVTF-NH2), the “Agonist Efficacy” value [1] was 15 ± 4%.
For `CCCCCCCCCCCCCCCC(=O)N[C@@H](CO)C(=O)NCC(=O)N[C@@H](CO)C(=O)N[C@@H](CCCNC(=N)N)C(=O)N1CCC[C@H]1C(=O)N[C@H](C(=O)N[C@@H](CCC(N)=O)C(=O)N[C@@H](C)C(=O)N[C@@H](CCCCN)C(=O)N[C@@H](CC(C)C)C(=O)N[C@@H](CC(C)C)C(=O)N[C@@H](C)C(=O)N[C@@H](CCCCN)C(=O)N[C@@H](CCCCN)C(=O)N[C@@H](CCCNC(=N)N)C(=O)N[C@H](C(=O)N[C@H](C(=O)N[C@@H](CCCNC(=N)N)C(N)=O)C(C)C)C(C)C)[C@@H](C)O` [Bpal-18] (Palmitoyl-SGSRPTQAKLLAKKRVVR-NH2), the “Agonist Efficacy” value (cholecystokinin B (CCKB)) was 12 ± 3%.
In the case of `CCCCCCCCCCCCCCCC(=O)N[C@@H](Cc1c[nH]cn1)C(=O)N[C@H](C(=O)N[C@@H](CC(C)C)C(=O)N[C@@H](C)C(=O)N[C@@H](C)C(=O)N[C@@H](CO)C(=O)NCC(=O)N[C@@H](CCCNC(=N)N)C(=O)N[C@@H](CCCNC(=N)N)C(=O)N[C@@H](Cc1ccc(O)cc1)C(=O)NCC(=O)N[C@@H](Cc1c[nH]cn1)C(=O)N[C@@H](C)C(=O)N[C@@H](CC(C)C)C(=O)N[C@@H](CCCNC(=N)N)C(N)=O)[C@@H](C)O` [Pepducin P4pal-15] (Palmitoyl-HTLAASGRRYGHALR-NH2), the IC50 (PAR4 [2]) is reported as 600 nM, the “inhibition of PAR4-dependent platelet aggregation” value (PAR4 [2]; AYPGKF) is reported as “effective inhibitor of platelet aggregation” and the “inhibition of PAR1-dependent Ca2+ response” value (PAR1) is reported as “without affecting SFLLRN”. The “inhibition of PAR4-dependent Ca2+ response” value (PAR4 [3]; 3 micromolar pepducin, 200 Micromolar AYPGKF) was “fully antagonize PAR4 signaling; also recorded: blocked AYPGKF” and the “agonist activity, platelet intracellular Ca2+” value (platelets) was “had no agonist activity”.
In the case of PAFISEDASGYL-C (PAFISEDASGYLC) [LBS1], the “inhibition of PAR1-dependent Ca2+ response” value (PAR1) is reported as “relatively poor antagonist”, the “inhibition of PAR1-dependent Ca2+ response” value (PAR1; listed as LBS-1) is reported as “poor antagonist” and the inhibition of aggregation [4] is reported as “did not inhibit”.
With `CCCCCCCCCCCCCCCC(=O)N[C@@H](CO)C(=O)NCC(=O)N[C@@H](CCCNC(=N)N)C(=O)N[C@@H](CCCNC(=N)N)C(=O)N[C@@H](Cc1ccc(O)cc1)C(=O)NCC(=O)N[C@@H](Cc1c[nH]cn1)C(=O)N[C@@H](C)C(=O)N[C@@H](CC(C)C)C(=O)N[C@@H](CCCNC(=N)N)C(N)=O` [Pepducin P4pal-10] (Palmitoyl-SGRRYGHALR-NH2) the IC50 (PAR4 [2]) was 500 to 1000 nM, the “inhibition of PAR1 Ca2+ response” value (PAR1; [5]) was 36% and the “attenuation of PAR1 Ca2+ signal” value (PAR1; [6]) was 17-67%. The “inhibition of PAR4 Ca2+ response” value (PAR4 [3]; [5]) was 97% and the “attenuation of PAR4 Ca2+ response” value (PAR4 [3]; [6]) was 50-80%.

— patent publication US8324172B2, “G protein coupled receptor agonists and antagonists and methods of activating and inhibiting G protein coupled receptors using the same” (Tufts Medical Center, Inc., priority 2000, dated 2012)
